Among the data in PubChem BioAssay (NCI) are TGI values, retold here.

Test systems include OVCAR-8 ovarian; EKVX NSCLC; HCT-15 colon; MCF7 breast; MDA-MB-231 breast; HCT-116 colon; U251 CNS; HOP-62 NSCLC; NCI-H23 lung; RXF 393 renal; HOP-92 NSCLC; COLO 205 colon; A549 NSCLC; SF-295 CNS; SF-539 CNS; LOX IMVI melanoma; OVCAR-5 ovarian; NCI-H226 lung; HCC-2998 colon.
Experiment in all cases: DTP human tumour cell line panel, 48 h

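Assay format: 96-well plates, 48-hour exposure. TGI marks complete inhibition of growth.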

For the molecule `COc1c(C(C)(C)C)cc(CC2C(=O)C=CC2=O)cc1C(C)(C)C`, the TGI is 66.9 µM in the assay on OVCAR-8 ovarian; 37.7 µM in the assay with EKVX NSCLC; 37.6 µM in the assay on HCT-15 colon; 45.5 µM in the assay with MCF7 breast; 36.5 µM in the assay on MDA-MB-231 breast; 13 µM in the assay with HCT-116 colon. The TGI is 35.4 µM in the assay with U251 CNS; 36.9 µM in the assay with HOP-62 NSCLC; 48.9 µM with NCI-H23 lung; 30.4 µM in the assay on RXF 393 renal; 37 µM with HOP-92 NSCLC; 24 µM with COLO 205 colon. For the same molecule, the TGI stood at 55.4 µM in the assay on A549 NSCLC; 44 µM with SF-295 CNS; 48.3 µM in the assay with SF-539 CNS; 40.2 µM in the assay with LOX IMVI melanoma; 35.8 µM in the assay with OVCAR-5 ovarian.

Take `O=C(CC(C(=O)c1ccsc1)c1ccsc1)c1ccsc1` (configuration not stated): the TGI with OVCAR-8 ovarian, with EKVX NSCLC, in the assay on HCT-15 colon, in the assay with NCI-H226 lung, in the assay on MCF7 breast and in the assay with MDA-MB-231 breast was greater than 100 µM each time. The TGI in the assay on HCT-116 colon, in the assay with U251 CNS, with HOP-62 NSCLC, with NCI-H23 lung, in the assay with COLO 205 colon and in the assay with HCC-2998 colon was greater than 100 µM throughout. Also, the TGI with A549 NSCLC, with SF-295 CNS, with SF-539 CNS and with LOX IMVI melanoma was greater than 100 µM in each case.

Regarding `CCc1c(CNC2=NCCN2)c(CC)c(CNC2=NCCN2)c(CC)c1CNC1=NCCN1`, the TGI in the assay with OVCAR-8 ovarian, with EKVX NSCLC, in the assay with HCT-15 colon, in the assay with NCI-H226 lung, with MCF7 breast and with HCT-116 colon was greater than 100 µM throughout. Moreover, the TGI with U251 CNS, in the assay with HOP-62 NSCLC, with NCI-H23 lung, in the assay with RXF 393 renal, in the assay with HOP-92 NSCLC and with COLO 205 colon was greater than 100 µM throughout. Further, the TGI in the assay on HCC-2998 colon, in the assay with A549 NSCLC, in the assay with SF-295 CNS, in the assay on SF-539 CNS and with OVCAR-5 ovarian was greater than 100 µM in each case.

Turning to `O=[N+]([O-])c1ccc2sc(/C=N/c3ccccn3)cc2c1`, the TGI in the assay on OVCAR-8 ovarian, in the assay with EKVX NSCLC, in the assay with HCT-15 colon, with MCF7 breast, with MDA-MB-231 breast and in the assay with HCT-116 colon was greater than 100 µM throughout. Further, the TGI with U251 CNS, in the assay on HOP-62 NSCLC, in the assay with NCI-H23 lung, in the assay with RXF 393 renal, in the assay on HOP-92 NSCLC and in the assay with COLO 205 colon was greater than 100 µM in each case. Besides, the TGI in the assay on HCC-2998 colon, in the assay on A549 NSCLC, in the assay on SF-295 CNS, with SF-539 CNS, in the assay with LOX IMVI melanoma and in the assay on OVCAR-5 ovarian was greater than 100 µM each time.

`N#CC(C#N)=c1c2ccccc2c(=C(C#N)C#N)c2ccccc12`: the TGI with OVCAR-8 ovarian was 42.7 µM; in the assay with HCT-15 colon, 65 µM; in the assay on NCI-H226 lung, 38.2 µM; in the assay on MCF7 breast it was greater than 100 µM; in the assay on MDA-MB-231 breast it was 32.9 µM; in the assay with HCT-116 colon, 34.4 µM. The TGI in the assay with U251 CNS is 55.4 µM; in the assay on HOP-62 NSCLC, 40.5 µM; in the assay with NCI-H23 lung it was 43.7 µM; in the assay with HOP-92 NSCLC it was 88.6 µM; with COLO 205 colon it was 37.5 µM; in the assay with A549 NSCLC, greater than 100 µM. Besides, the TGI in the assay with LOX IMVI melanoma is 40.5 µM; in the assay with OVCAR-5 ovarian, 43.3 µM.

Take `Cc1cn(Cc2cccc(C3=NCCCN3)c2)c(=O)n(Cc2cccc(C3=NCCCN3)c2)c1=O`: the TGI in the assay on OVCAR-8 ovarian, in the assay with EKVX NSCLC, in the assay on HCT-15 colon, with MCF7 breast, in the assay on MDA-MB-231 breast and in the assay on HCT-116 colon was greater than 100 µM each time. Further, the TGI with U251 CNS, in the assay on HOP-62 NSCLC, in the assay with NCI-H23 lung, in the assay with HOP-92 NSCLC, in the assay with COLO 205 colon and with HCC-2998 colon was greater than 100 µM each time. Also, the TGI in the assay with A549 NSCLC, in the assay on SF-295 CNS, in the assay with LOX IMVI melanoma and in the assay with OVCAR-5 ovarian was greater than 100 µM each time.

In the case of `CS(=O)(=O)OCCCSCCSCCCOS(C)(=O)=O`, the TGI in the assay with OVCAR-8 ovarian, in the assay with EKVX NSCLC, in the assay with HCT-15 colon, in the assay on MCF7 breast, with MDA-MB-231 breast and with HCT-116 colon was greater than 100 µM in each case. Moreover, the TGI in the assay with U251 CNS, in the assay on HOP-62 NSCLC, in the assay with NCI-H23 lung, in the assay with HOP-92 NSCLC, in the assay with COLO 205 colon and in the assay on HCC-2998 colon was greater than 100 µM in each case. Further, the TGI with A549 NSCLC, in the assay on SF-295 CNS, in the assay on SF-539 CNS, in the assay with LOX IMVI melanoma and in the assay with OVCAR-5 ovarian was greater than 100 µM throughout.

Regarding `C=CCOCn1cc(F)c(=O)[nH]c1=O`, the TGI in the assay with OVCAR-8 ovarian, with EKVX NSCLC, in the assay on HCT-15 colon, in the assay on NCI-H226 lung, in the assay on MCF7 breast and in the assay with MDA-MB-231 breast was greater than 100 µM in each case. The TGI in the assay with HCT-116 colon, in the assay on HOP-62 NSCLC, in the assay on NCI-H23 lung, in the assay on COLO 205 colon, in the assay on HCC-2998 colon and in the assay on A549 NSCLC was greater than 100 µM each time. The TGI in the assay with SF-295 CNS, in the assay on SF-539 CNS and with LOX IMVI melanoma was greater than 100 µM in each case.

Turning to `c1ccc(-c2c(-c3cccs3)[nH]c(-c3cccs3)c2-c2ccccn2)nc1`, the TGI in the assay with OVCAR-8 ovarian was 75.2 µM; in the assay with EKVX NSCLC, 65.4 µM; with HCT-15 colon it was 40.4 µM; in the assay with NCI-H226 lung, 49.2 µM; in the assay on MDA-MB-231 breast, 48.7 µM; in the assay on HCT-116 colon it was greater than 100 µM. In addition, the TGI with U251 CNS is 48.7 µM; with NCI-H23 lung, greater than 100 µM; in the assay on RXF 393 renal, 53.5 µM; in the assay on HOP-92 NSCLC, 55.4 µM; in the assay with COLO 205 colon, 30.6 µM; in the assay with HCC-2998 colon it was 44.3 µM. In addition, the TGI worked out at 72.8 µM in the assay with A549 NSCLC; 39.2 µM in the assay on SF-295 CNS; 40.6 µM with SF-539 CNS; 37.1 µM with LOX IMVI melanoma; 66.6 µM in the assay on OVCAR-5 ovarian.
